Entries after “also recorded” stand apart in the source; their conditions may differ.
What was measured:
[1] = tested on: ARPE-19 cells; experiment: Life-dead assay (propidium iodide / Hoechst 33342), ARPE-19 cells; format: cell-based; settings: ARPE-19 cells, 0.2% and 0.02% dye, 24 hours after treatment, compared to BSS plus
Experimental: (§1) Confluent RPE and ARPE-19 cells were prepared and treated as described above. Cell viability was quantified based on a two-color fluorescence assay in which the nuclei of nonviable cells appear red because of staining by the membrane-impermeable dye propidium iodide (Sigma), whereas the nuclei of all cells were stained with the membrane-permeable dye Hoechst 33342 (Intergen, Purchase, N.Y.). […] For evaluation of cell viability, cells were washed in PBS and incubated with 2.0 μg/mL propidium iodide and 1.0 μg/mL Hoechst 33342 for 20 minutes at 37° C. Subsequently, cells were analyzed with an epifluorescence microscope (Axioskop; Zeiss, Göttingen, Germany). The labeled nuclei were then counted in fluorescence photomicrographs, and dead cells were expressed as a percentage of total nuclei in the field. The data are based on counts from three experiments performed in duplicate wells, with three to five documented representative fields per well.

[2] = tested on: primary RPE cells; experiment: MTT assay, primary RPE cells; settings: 0.2% and 0.02% dye, 10 minutes exposure, compared to BSS plus control
Text: In brief, whole eyes were thoroughly cleansed in 0.9% NaCl solution, immersed in 5% polyvinyl pyrrolidone iodine, and rinsed again in the sodiumchloride solution. The anterior segment from each donor eye was removed and the posterior poles were examined with the aid of a binocular stereomicroscope to confirm the absence of gross retinal disease. Next, the neural retinas were carefully peeled away from the RPE-choroid-sclera using fine forceps. The eye cup was rinsed with Ca^2+ and Mg^2+-free Hank's balanced salt solution, and filled with 0.25% trypsin (GIBCO, Karlsruhe, Germany) for 30 min at 37° C. The trypsin was carefully aspirated and replaced with Dulbecco's modified eagles medium (DMEM, Biochrom, Berlin, Germany) supplemented with 20% fetal calf serum (FCS, Biochrom). Using a pipette, the media was gently agitated, releasing the RPE into the media by avoiding damage to Bruch's membrane. The RPE cell solution was transferred to a 50 ml flask (Falcon, Wiesbaden, Germany) containing 20 ml of DMEM (Biochrom) supplemented with 20% FCS (Biochrom) and maintained at 37° C. and 5% carbon dioxide. […] After having grown to confluency (100%), primary RPE cells were subcultured and maintained in DMEM (Biochrom) supplemented with 10% FCS (Biochrom) at 37° C. and 5% carbon dioxide. Primary RPE of passage 3-6 and ARPE-19 cells were used for experiments.
For exposure of dyes RPE and ARPE-19 cells were kept for 24 hours under serum free conditions. After washing cells three times with PBS, cells were incubated for 10 minutes with 300 μl of BSS plus containing 0.2% or 0.02% of dye, respectively. […] The dye was then removed by carefully rinsing cells with BSS plus three times. After 24 hours incubation with serum containing media the cell proliferation assay was performed. […]
The tetrazolium dye-reduction assay (MTT; 3-[4,5-dimethylthiazol-2-yl]-2,5-diphenyl tetrazolium bromide;) was used to determine cell survival rate. […] Absorption was measured by a scanning multiwell spectrophotometer at 550 nm (Molecular Probes, Garching, Germany). […]

[3] = tested on: epiretinal membranes, ILM and vitreous; experiment: Vitreoretinal surgery for macular pucker (Example 4); format: in vivo, human; settings: for staining effect of ERM: washed out after one minute
Text: The study was approved by the local ethics committee and Institutional Review Board, and written informed consent was obtained from all patients. Thirteen patients with macular pucker, seven males and six females with a mean age of 65, were included in the present study.
Preoperatively and postoperatively, patients underwent a complete clinical examination including measurement of best corrected visual acuity (VA), slit-lamp examination, tonometry, funduscopy using a 78 diopter lens (Volk Optical, Mentor, Ohio, USA), fluorescein angiography, OCT (Stratus), Goldmann perimetry, multifocal ERG and fundus photograph. Patients were seen one day before surgery and then in six-week intervals. Postoperatively, ERG and Goldmann perimetry were performed at the six-week follow-up visit and were not repeated if unremarkable.
Bromphenol blue was dissolved and diluted using BSS plus and sterilised using a 0.22 μm syringe filter and dye concentrations of 0.2% were then injected into the eye.
Vitrectomy consisted of a standard three-port pars plana vitrectomy as described in previous reports (Haritoglou C., Gandorfer A., Gass C. A., et al., “Indocyanine green-assisted peeling of the internal limiting membrane in macular hole surgery affects visual outcome: a clinicopathologic correlation”, Am J. Ophthalmol 2002; 134:836-41; Haritoglou C., Gandorfer A., Gass C. A., et al.: “The effect of indocyanine-green on functional outcome of macular pucker surgery, Am J. Ophthalmol 2003; 135:328-37). Before injection of the dye, a fluid air-exchange was performed to avoid an uncontrolled dye distribution. Then, a few drops of the dye were applied over the macular area. After a period of one minute, the dye was completely washed out by irrigation. The staining characteristics were then evaluated by the surgeon and an additional examiner (CH). This was followed by removal of epiretinal tissue and the ILM using an end-gripping forceps. After the removal of epiretinal tissue, no second dye injection was performed in this series of patients.
All epiretinal tissue removed during surgery was harvested and immediately prepared for ultrastructural analysis. Ultrathin sections were obtained from all specimens, contrasted with uranyl acetate and lead citrate, and analysed using a Zeiss EM 9 electron microscope (Zeiss Jena, Germany).

[4] = tested on: primary RPE cells; experiment: Life-dead assay (propidium iodide / Hoechst 33342), primary RPE cells; format: cell-based; settings: primary RPE cells, 0.2% and 0.02% dye, 24 hours after treatment, compared to BSS plus
Experimental: Invest Ophthalmol Vis Sci 2002; 43: 3575-82.
as §1

[5] = Light absorbing properties (UV/VIS/NIR spectrometer); format: physicochemical; settings: measured up to a content of 0.05% dye
Experimental: Light absorption was measured in 0.05% solutions, with BSS plus as a solvent medium. Light absorption was measured instantly after preparation of a stock solution of the dye using a UV/VIS/NIR Spectrometer (Lambda 900, Perkin Elmer) between 200 and 1000 nm.

[6] = tested on: lens capsule; experiment: Staining of the lens capsule in enucleated porcine eyes; settings: injected into air-filled anterior chamber, removed after one minute; clear porcine lens as background
Experimental: Additionally, the staining characteristics of the lens capsule in enucleated porcine eyes with a postmortem time of nine hours were evaluated. The dyes were injected into the air-filled anterior chamber and removed by irrigation after one minute. Then, the cornea was removed and a capsulorhexis was performed with a bent needle. All procedures were taped on video.

[7] = 0.2%, listed as Bromphenol blue
[8] = 0.2%, listed as bromphenol blue

## O=S1(=O)OC(c2cc(Br)c(O)c(Br)c2)(c2cc(Br)c(O)c(Br)c2)c2ccccc21 [Bromophenol blue, Bromophenole blue]
[1]
  cell viability, nuclei of nonviable cells labeled with propidium iodide: did not affect cell survival
[2]
  cell survival of primary RPE cells (MTT): no influence on cell survival
[3]; 0.2%, patients with ERM
  staining of the ILM: did not observe sufficient staining of the ILM
[3]; [7]
  staining effect of ERM: varied depending on the thickness of the ERM
  staining of remnant vitreous at the vitreous base: could he seen in all cases; also recorded: strong staining
[3]; [8]
  staining effect of ERM: good staining properties
  staining of remnant vitreous at the vitreous base: good staining properties
[3]; epiretinal membranes of 8 patients, electron microscopy
  histology: cellular integrity of epiretinal cells: maintained their cellular integrity
[3]; in vivo
  amplitudes in postoperative ERG examinations: no affection of the amplitudes
  dye-related complications in any functional test performed: No dye-related complications
  loss of VA: No loss of VA
  peripheral visual field defects attributable to the dye: nor did we observe peripheral visual field defects
  safety profile intraoperatively and during follow-up: very good safety profile
[3]; overall patients
  VA postoperatively: 0.32
  VA preoperatively: 0.16
[4]
  cell viability, nuclei of nonviable cells labeled with propidium iodide: did not affect cell survival
[5]
  position of the long wavelength maximum, influence of dye concentration: not influenced by the dye concentration
[6]
  staining of the lens capsule in porcine eyes: stained well
